Structures are written as SMILES. ≈ marks a conversion by molar mass, not a printed value. Some results are limits rather than exact numbers.

What all share (assay type): cell-based
One test has as its system Proteus morg. 11006. Nature of the test: MIC, agar dilution test, Proteus morg. 11006. Conditions: agar dilution test / Isosensitest medium. An excerpt:
(§1) As a comparison, the corresponding MIC values of 1-ethyl-6-fluoro-1,4-dihydro-4-oxo-7-(1-piperazinyl)-1,8-naphthyridine-3-carboxylic acid (AT 2266, enoxacin), which is known from European Patent Application 9,425, Japanese Patent Applications 81/45473 [C.A. 95, 115 597 (1981)] and 81/46811 [C.A. 95, 121 142 (1981)], from J. Med. Chem. 27, 292 (1984) or from J. Heterocycl.
(§2) Agar dilution test / Isosensitest medium

A further test deals with Providencia 12012. Nature of the test: MIC, agar dilution test, Providencia 12012. The settings on record: agar dilution test / Isosensitest medium.
Description: as §1, §2
(In agar dilution the substance is mixed into plates at graded concentrations.)

In another test the test system is Proteus vulg. 1017. Nature of the test: MIC, agar dilution test, Proteus vulg. 1017. Conditions: agar dilution test / Isosensitest medium.
Description: as §1, §2

Another test relates to Staphyloc. 133. Nature of the test: MIC, agar dilution test, Staphyloc. 133. The settings on record: agar dilution test / Isosensitest medium.
Description: as §1, §2

The next test has as its system E.coli 4418. Nature of the test: MIC, agar dilution test, E.coli 4418. Conditions: Escherichia coli, agar dilution test / Isosensitest medium.
Description: as §1, §2

The next test relates to E.Coli 455/7. Nature of the test: MIC, agar dilution test, E.Coli 455/7. The settings on record: Escherichia coli, agar dilution test / Isosensitest medium.
Description: as §1, §2

A further test deals with Klebsiella 63. Nature of the test: MIC, agar dilution test, Klebsiella 63. Conditions: agar dilution test / Isosensitest medium.
Description: as §1, §2

Another test has as its system E.coli Neum. Nature of the test: MIC, agar dilution test, E.coli Neum. The settings on record: Escherichia coli, agar dilution test / Isosensitest medium.
Description: as §1, §2

The next test deals with Serratia 16040. Nature of the test: MIC, agar dilution test, Serratia 16040. Conditions: agar dilution test / Isosensitest medium.
Description: as §1, §2

In a further test the test system is Klebsiella 6179. Nature of the test: MIC, agar dilution test, Klebsiella 6179. Conditions: agar dilution test / Isosensitest medium.
Description: as §1, §2

The subject of the next test is Proteus mir. 8175. Nature of the test: MIC, agar dilution test, Proteus mir. 8175. Conditions: agar dilution test / Isosensitest medium.
Description: as §1, §2

The test system of the next test is Staphyloc. 1756. Nature of the test: MIC, agar dilution test, Staphyloc. 1756. Conditions: agar dilution test / Isosensitest medium.
Description: as §1, §2

In the next test the test system is Pseudomonas W. Nature of the test: MIC, agar dilution test, Pseudomonas W. Conditions: agar dilution test / Isosensitest medium.
Description: as §1, §2

On to `CCn1cc(C(=O)O)c(=O)c2cc(F)c(N3CCNCC3)nc21` [Enoxacin, 1-ethyl-6-fluoro-1,4-dihydro-4-oxo-7-(1-piperazinyl)-1,8-naphthyridine-3-carboxylic acid, reference compound], for which the MIC in the test on Proteus morg. 11006 came to 0.125 µg/mL (≈ 0.39 µM); with Providencia 12012, 0.25 µg/mL (≈ 0.78 µM); with Proteus vulg. 1017 it was 0.125 µg/mL (≈ 0.39 µM); in the test on Staphyloc. 133, 1 µg/mL (≈ 3.12 µM); with E.coli 4418, 0.25 µg/mL (≈ 0.78 µM); with E.Coli 455/7, 16 µg/mL (≈ 49.9 µM). In addition, the MIC was 0.5 µg/mL (≈ 1.56 µM) against Klebsiella 63; 0.06 µg/mL (≈ 0.187 µM) against E.coli Neum.; 32 µg/mL (≈ 99.9 µM) against Serratia 16040; 2 µg/mL (≈ 6.24 µM) in the test on Klebsiella 6179; 0.25 µg/mL (≈ 0.78 µM) in the test with Proteus mir. 8175; 1 µg/mL (≈ 3.12 µM) against Staphyloc. 1756. Besides, the MIC in the test with Pseudomonas W. amounted to 2 µg/mL (≈ 6.24 µM).

`O=C(O)c1cn(C2CC2)c2nc(N3CCNCC3)c(F)cc2c1=O` [Example 1, 1-Cyclopropyl-6-fluoro-1,4-dihydro-4-oxo-7-(1-piperazinyl)-1,8-naphthyridine-3-carboxylic acid]: the MIC turned out to be 0.06 µg/mL (≈ 0.181 µM) in the test with Proteus morg. 11006; 0.03 µg/mL (≈ 0.0903 µM) against Providencia 12012; 0.06 µg/mL (≈ 0.181 µM) with Proteus vulg. 1017; 0.5 µg/mL (≈ 1.5 µM) against Staphyloc. 133; 0.03 µg/mL (≈ 0.0903 µM) against E.coli 4418; 4 µg/mL (≈ 12 µM) with E.Coli 455/7. The minimum inhibitory concentration (MIC) is 0.03 µg/mL (≈ 0.0903 µM) in the test with Klebsiella 63; at most 0.015 µg/mL against E.coli Neum.; 8 µg/mL (≈ 24.1 µM) against Serratia 16040; 0.125 µg/mL (≈ 0.376 µM) in the test with Klebsiella 6179; 0.125 µg/mL (≈ 0.376 µM) against Proteus mir. 8175; 0.5 µg/mL (≈ 1.5 µM) in the test on Staphyloc. 1756. This molecule also gave a minimal inhibitory concentration (MIC) in the test with Pseudomonas W. of 0.125 µg/mL (≈ 0.376 µM).

In the case of `CC1CN(c2nc3c(cc2F)c(=O)c(C(=O)O)cn3C2CC2)CCN1` (stereo not shown) [Example 2, 1-Cyclopropyl-6-fluoro-1,4-dihydro-7-(3-methyl-1-piperazinyl)-4-oxo-1,8-naphthyridine-3-carboxlyic acid], the MIC was determined as 0.03 µg/mL (≈ 0.0866 µM) in the test with Proteus morg. 11006; 0.125 µg/mL (≈ 0.361 µM) in the test with Providencia 12012; 0.125 µg/mL (≈ 0.361 µM) in the test with Proteus vulg. 1017; 0.5 µg/mL (≈ 1.44 µM) with Staphyloc. 133; 0.03 µg/mL (≈ 0.0866 µM) with E.coli 4418; 8 µg/mL (≈ 23.1 µM) with E.Coli 455/7. Moreover, the MIC with Klebsiella 63 was at most 0.015 µg/mL; in the test with E.coli Neum., at most 0.015 µg/mL; with Serratia 16040, 8 µg/mL (≈ 23.1 µM); against Klebsiella 6179, 0.125 µg/mL (≈ 0.361 µM); in the test on Proteus mir. 8175, 0.25 µg/mL (≈ 0.722 µM); with Staphyloc. 1756, 0.5 µg/mL (≈ 1.44 µM). In the test on Pseudomonas W., this molecule gave an MIC of 1 µg/mL (≈ 2.89 µM).

Consider `CN1CCN(c2nc3c(cc2F)c(=O)c(C(=O)O)cn3C2CC2)CC1.Cl` [Example 3, 1-Cyclopropyl-6-fluoro-1,4-dihydro-7-(4-methyl-1-piperazinyl)-4-oxo-1,8-naphthyridine-3-carboxylic acid hydrochloride], for which the MIC stood at 0.06 µg/mL in the test on Proteus morg. 11006; 0.06 µg/mL with Providencia 12012; 0.125 µg/mL against Proteus vulg. 1017; 0.5 µg/mL against Staphyloc. 133; 0.06 µg/mL against E.coli 4418; 8 µg/mL against E.Coli 455/7. The MIC against Klebsiella 63 was at most 0.015 µg/mL; against E.coli Neum., at most 0.015 µg/mL; in the test with Serratia 16040, 8 µg/mL; against Klebsiella 6179 it was 0.03 µg/mL; against Proteus mir. 8175, 0.25 µg/mL; against Staphyloc. 1756, 0.5 µg/mL. Further, the MIC in the test with Pseudomonas W. is 1 µg/mL.

As a reminder, the MIC is the smallest concentration in the dilution series that meets the test's criterion for growth inhibition. Read a high MIC as weaker potency.

Values taken from patent US4840954A, “6,7-disubstituted 1-cycloproply-1,4-dihydro-4-oxo-1,8-naphthyridine-3-carboxylic acids” (Bayer Aktiengesellschaft, priority 1985, dated 1989).
